Assay results as given in patent US20070093460A1, “Methods of using selective 11beta-HSD inhibitors to treat gluocorticoid associated states” (priority 2005, published 2007).
“Also recorded” adds a separate entry of the source. Read-outs that look alike come from different tables or passages of the source.

What was measured:
[1] = biological target: T1, 11β-HSD1 Reductase (Rattus norvegicus, UniProt P16232); test: 11β-HSD1 reductase assay in rat Leydig cell homogenates; settings: for Leydig Cell 11β-HSD1 Reductase [S]= 600 nM: rat Leydig cell homogenates, 600 nM 11-dehydro-corticosterone;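 as to all read-outs here: rat Leydig cell homogenate incubated 20 min at 37 °C, pH 7.4, with tritiated 11-dehydro-corticosterone and 3 mM NADPH, product measured by HPLC, inhibition from triplicate dose–response curves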
Description: Each enzyme reaction (described below) was stopped by adding 750 μL MeOH. After centrifugation, an aliquot of supernatant was analyzed by HPLC using a DuPont Zorbax C8 column.
11β-HSD1 dehydrogenase was assayed by incubating homogenates (13,000 cells equivalent) with 600 nM [^3H]-B (0.5 μCi) in the presence of 3 mM NADP, 50 mM Tris-HCl; pH 8.4 at 37° C. for 10 minutes in a total volume of 250 μL. 11β-HSD1 reductase was assayed by incubating homogenates (52,000 cells equivalent) with 600 nM [^3H]-11-dehydro-corticosterone in presence of 3 mM NADPH, 50 mM Tris-HCl; pH 7.4 at 37° C. for 20 minutes in a total volume of 250 μL.
Each concentration was tested in triplicate and the dose response curve, showing percentage inhibition versus log concentration of steroid was plotted. The data fitted a log-linear straight line.

[2] = biological target: T2, 11β-HSD2 (Ovis aries, UniProt P50168); test: 11β-HSD2 enzyme activity in sheep kidney microsomes; format: biochemical; settings: for inhibitors of 11β-HSD2 (summary in words): summary of the screening
T2 construct: incubating sheep kidney microsomal fraction (6.5 μg protein) with 50 nM corticosterone; from tissue; host or cells: sheep kidney microsomal fraction
T2 sequence (P50168 1-427): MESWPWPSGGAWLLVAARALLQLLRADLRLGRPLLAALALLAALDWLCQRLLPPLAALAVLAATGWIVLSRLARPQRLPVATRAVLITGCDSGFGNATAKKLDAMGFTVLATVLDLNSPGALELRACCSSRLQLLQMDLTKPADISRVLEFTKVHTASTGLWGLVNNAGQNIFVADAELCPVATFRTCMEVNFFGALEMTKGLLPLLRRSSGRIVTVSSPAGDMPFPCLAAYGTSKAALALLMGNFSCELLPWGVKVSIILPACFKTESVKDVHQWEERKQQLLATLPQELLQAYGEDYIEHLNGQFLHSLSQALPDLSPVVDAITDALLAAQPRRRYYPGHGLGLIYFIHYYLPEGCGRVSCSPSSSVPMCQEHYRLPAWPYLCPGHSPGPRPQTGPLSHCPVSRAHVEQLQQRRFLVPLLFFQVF
Description: The enzymatic reaction was termninated by addition of methanol and synthesis of 11-dehydro-corticosterone was quantitated by HPLC as described above.

[3] = biological target: T3, 11β-HSD1 Dehydrogenase (Rattus norvegicus, UniProt P16232); test: 11β-HSD1 dehydrogenase assay in rat Leydig cell homogenates; format: biochemical; set-up: Freshly prepared rat Leydig cell homogenates were chosen since they provide a rich and reliable source of both 11β-HSD1 dehydrogenase and reductase; from tissue; host or cells: rat testicular Leydig cells, homogenate; settings: for inhibitors of 11β-HSD1 dehydrogenase (summary in words): summary of the screening;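 as to all read-outs here: tritiated corticosterone conversion by 11β-HSD1 dehydrogenase in Leydig homogenates with 3 mM NADP at pH 8.4, 37 °C for 10 min, products resolved by HPLC, inhibition relative to uninhibited enzyme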
[4] = biological target: T4, 11β-HSD2 Dehydrogenase (Ovis aries, UniProt P50168); test: Table 1: inhibition of 11β-HSD2 dehydrogenase; format: biochemical; settings: Table 1, inhibition in words
T4 sequence (P50168 1-427): T2 sequence (P50168 1-427)

[5] = biological target: T3, 11β-HSD1 Dehydrogenase; test: Table 1: inhibition of 11β-HSD1 dehydrogenase; format: biochemical; settings: Table 1, inhibition in words
[6] = biological target: T1, 11β-HSD1 Reductase; test: Table 1: inhibition of 11β-HSD1 reductase; format: biochemical; settings: Table 1, inhibition in words
[7] = 11β-HSD2, sheep kidney microsomes, 50 nM corticosterone, NAD+, aldosterone, cortisol, corticosterone series, read-out: Dehydrogenase [S] = 50 nM
[8] = rat Leydig cell homogenates, 600 nM corticosterone, NADP, corticosteroid series, read-out: Leydig Cell 11β-HSD1 Dehydrogenase [S]= 600 nM

T3 sequence (P16232 whole entry): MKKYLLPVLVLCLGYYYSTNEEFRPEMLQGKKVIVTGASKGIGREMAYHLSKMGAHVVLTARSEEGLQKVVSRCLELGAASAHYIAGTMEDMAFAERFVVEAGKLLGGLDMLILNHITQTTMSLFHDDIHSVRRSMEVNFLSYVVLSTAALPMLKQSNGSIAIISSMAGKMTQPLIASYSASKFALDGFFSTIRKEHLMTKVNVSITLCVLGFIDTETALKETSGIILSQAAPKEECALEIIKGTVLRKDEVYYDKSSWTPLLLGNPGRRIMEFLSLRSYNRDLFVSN
T1 sequence (P16232 whole entry): as above

SMILES	IC50 [1] [nM]	inhibitors of 11β-HSD1 reductase (summary in words) ([1]; summary of the screening)	IC50 [2, 7] [nM]	inhibitors of 11β-HSD2 (summary in words) [2]	IC50 [3, 8] [nM]	11β-HSD2 Dehydrogenase [4]	11β-HSD1 Dehydrogenase [5]	11β-HSD1 Reductase [6]	Leydig Cell 11β-HSD1 Reductase [S]= 600 nM ([1]; NADPH, corticosteroid series)	inhibitors of 11β-HSD2 (summary in words) ([2]; listed as 3α,5α-TH -aldosterone)	inhibitors of 11β-HSD2 (summary in words) ([2]; listed as 3α,5α-TH-aldosterone)	inhibitors of 11β-HSD1 dehydrogenase (summary in words) [3]	IC50 [2] [nM]	IC50 [3] [nM]	Leydig Cell 11β-HSDl Dehydrogenase [S] = 600 nM ([3]; rat Leydig cell homogenates, 600 nM corticosterone, progesterone and androgen derivatives)	Leydig Cell 11β-HSD1 Reductase [S]= 600 nM ([1]; progesterone and androgen derivatives)	inhibitors of 11β-HSD2 (summary in words) ([2]; listed as 11β-OH-testosterone)	inhibitors of 11β-HSD1 dehydrogenase (summary in words) ([3]; listed as 11β-OH-testosterone)	inhibitors of 11β-HSD1 dehydrogenase (summary in words) ([3]; listed as 11β-hydroxy-testosterone)
C[C@]12CC[C@@H](O)C[C@H]1CC[C@@H]1[C@H]2C(=O)C[C@]2(C)[C@@H](C(=O)CO)CC[C@@H]12 [3α,5α-TH-11-dehydrocorticosterone, 5α-Pregnan-3α,21-diol-11,20-dione]	700	potent inhibitors; also recorded: high potency	800	potent inhibitors; also recorded: high potency	8000	Potent Inhibitor	No Inhibition	Potent Inhibitor											
C[C@]12CC[C@@H](O)C[C@H]1CC[C@@H]1[C@H]2[C@@H](O)C[C@]2(C=O)[C@@H](C(=O)CO)CC[C@@H]12 [3α,5α-TH-Aldosterone, 5α-Pregnan-3α,11β,21-triol-20-one-18-al]	> 100000		500		25000	Potent Inhibitor	Moderate Inhibitor	No Inhibition	inactive	potent inhibitors	high potency								
C[C@]12CC[C@@H](O)C[C@H]1CC[C@@H]1[C@H]2[C@@H](O)C[C@]2(C)[C@@H](C(=O)CO)CC[C@@H]12 [3α,5α-TH-Corticosterone, 5α-Pregnan-3α,11β,21-triol-20-one]			260	potent inhibitors; also recorded: high potency	1300	Potent Inhibitor	Potent Inhibitor	No Inhibition	weak inhibitor			potent inhibitors; also recorded: high potency							
C[C@]12CCC(=O)C[C@H]1CC[C@@H]1[C@H]2[C@@H](O)C[C@]2(C)[C@@H](C(=O)CO)CC[C@@H]12 [5α-DH-Corticosterone, 5α-Pregnan-11β,-21-diol-3,20-dione]	6300			potent inhibitors; also recorded: high potency		Potent Inhibitor	Potent Inhibitor	No inhibition				potent inhibitors; also recorded: high potency	150	2100					
C[C@]12CC(=O)[C@@H]3[C@@H](CCC4=CC(=O)CC[C@@]43C)[C@H]1CC[C@@H]2O [11 -Keto-Testosterone, 4-Androsten-17β-ol-11,3-dione]	18000			potent inhibitors; also recorded: high potency		No Inhibition	No Inhibition	Selective Inhibitor					1350	> 100000	inactive				
C[C@]12C[C@H](O)[C@@H]3[C@@H](CCC4=CC(=O)CC[C@@]43C)[C@H]1CC[C@@H]2O [11β-OH-Testosterone, 4-Androsten-11β,17β-diol-3-one]	> 100000					Inhibitor (Non-Selective)	Inhibitor (Non-Selective)	No Inhibition				potent inhibitors	350	9000		inactive	potent inhibitors; also recorded: high potency	high potency	potently inhibit
